Test results taken from patent US20250288704A1, “CXCR4-LIGANDS FOR DIAGNOSTIC AND THERAPEUTIC USE AND PRECURSORS THEREOF” (priority 2021, published 2025).
Where two headings read alike, the source gives them in different places. Positions of bridges follow the written chain, without caps; N, C: chain ends. Non-standard residues stand in square brackets, D forms with d. Residues, ends and D or L forms follow the SMILES beside them. Groups on a side chain read outwards from the residue. Chains are numbered I, II in the order given. *: point of attachment. 2Nal = N[C@@H](Cc1ccc2ccccc2c1)C(=O)O; dNMeOrn = CN[C@H](CCCN)C(=O)O; HYNIC = NNc1ccc(C(=O)*)cn1; Mercaptoacetyl = O=C(CS)*; 4Abz = Nc1ccc(C(=O)O)cc1; X1 = NCCNCC(CNCCN)C(=O)*; dDap = NC[C@@H](N)C(=O)O

Legend:
[1] = tested on: CXCR4-expressing Chem_1 cells; test: Determination of internalization, dual tracer with 125I-Fc-131; type: cell-based; conditions: for Cell-bound [%] / Internalized [%]: of total cellular activity
Method in brief: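 Receptor blockade used AMD3100 (1 mM stock) versus medium-treated wells, triplicate per time point, in Chem_1 cells cultured at 37 °C in DMEM-F12/10% FBS. Activity of supernatant, surface-bound and internalized (1 M NaOH) fractions measured by γ-counter, corrected for non-specific uptake and normalised to standard ligand.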

[2] = Octanol/PBS partition coefficient (logD7.4); type: physicochemical; conditions: n-octanol/PBS pH 7.4, radiolabeled compound
Experimental: The tubes were vortexed at maximum speed for 3 min to ensure equilibrium before centrifugation at 15.000×g for 5 min on a Biofuge 15 from Heraeus Holding GmbH (Osterode, Germany). An aliquot of 100 μL of each fraction was measured in the γ-counter and the log D7.4 calculated as follows: […]

CXCR4 [3] = target: T1, CXCR4 (Homo sapiens, UniProt P61073); test: Determination of inverse IC50 (invIC50): radiolabeled peptide displaced by Fc-131 on Jurkat cells
Experimental: For in vitro experiments, cells were counted in a hemocytometer using trypan blue as contrast agent. The cell suspension was centrifuged, and the pellet resuspended in HBSS (+1 wt % BSA) to a concentration of 2 mio cells/mL. 8×3 polystyrene tubes were loaded with 25 μL of the standard ligand ^125I-Fc-131 (see 4.1, 1.00 nM in HBSS) and 25 μL of the ligand to investigate in the respective concentration (10^−4-10^−10 M, n=3 for each concentration). 200 μL of cell suspension (400.000 cells per well) were added to obtain a final peptide concentration range of 10^−5-10^−11 M. The tubes were cooled for 2 h at 8° C. to prevent internalization. The experiment was stopped by removal of the supernatant. 200 μL HBSS were added onto the cells, the suspension centrifuged, and the supernatant pooled with the respective first fractions. This step was repeated once more before the tubes containing the supernatants and the ones containing the cell pellets were subjected to activity measurement in the γ-counter.
For the determination of inverse IC50 (invIC50) values the protocol for the determination of regular IC50 values was resumed with minor changes. The peptide under investigation was radioactively labeled and a stock solution was prepared in HBSS (2.00 nM). A concentration gradient of the standard ligand Fc-131 was prepared in HBSS (10^−4-10^−10 M). A cell tube was then containing 25 μL of the radioactive peptide solution, 25 μL of the respective Fc-131 solution and 200 μL cell suspension (400.000 cells). The experiment was conducted as described above.

CXCR4 [4] = target: T1, CXCR4; test: Determination of IC50: competition with 125I-Fc-131 on CXCR4-positive Jurkat cells; type: binding; design: CXCR4-positive Jurkat T lymphocyte cells were grown in Gibco's RPMI 1640 GlutaMAX medium; endogenous in cells; host or cells: Jurkat T lymphocyte cells (whole cells in suspension, 400.000 per tube);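 note: test compound at 10^−5 to 10^−11 M competed for 2 h at 8 °C with the radioligand on 400,000 cells per well, bound versus free activity measured by γ-counting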
[5] = Biodistribution in Jurkat tumor-bearing CB-17 SCID mice; type: in vivo; conditions: female, CB-17 SCID, mouse, in vivo, iv, total radioactivity
Method in brief: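 Radioligand (125I, 177Lu, 99mTc, 18F or 68Ga label; roughly 0.5-20 MBq, 0.02-0.20 nmol) was injected intravenously via tail vein. Hosts were CB17-SCID mice with subcutaneous Jurkat tumors of 5-8 mm, 4-10 weeks post-inoculation. Dissected organs were weighed and counted in a γ-counter.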

[6] = Experimental: The radiosynthesis of [^99mTc]CXCR4-Tc-14 was performed manually, as described in chapter 4.2.3 above. Images were acquired after injection of 430-604 MBq of [^99mTc]CXCR4-Tc-14 at 5 min to 21 h p.i. Details of the scanning procedure are set out below.
Clinical evaluation of [^99mTc]CXCR4-Tc-14 in patients was conducted under compassionate use in compliance with the German Medicinal Products Act, AMG § 13 2b, and in accordance with the responsible authorities (Government of Oberbayern). First proof-of-concept studies were performed at the Universitätsklinikum Augsburg (Augsburg, Germany).
All subjects were examined on a Discovery MN CT 670 Pro equipped with an Optima 540 CT (GE Healthcare, Solingen, Germany). Full-body SPECT/CT scans at 5 and 60 min after tracer injection were acquired with a scanning speed of 30 cm/min, scans at 120 and 300 min were acquired with a scanning speed of 12 cm/min and scans at 21 h were acquired with a scanning speed of 5 cm/min. The scans were obtained in 60 subsets using the double-head technology in matrices of 128×128 (zoom 1). SPECT scans at 60 and 180 min after tracer injection were acquired with an exposure time of 8 sec per subset and scans at 21 h were acquired with an exposure time of 16 sec per subset. Emission data were smoothed applying a Butterworthfilter (0.48) and reconstructed iteratively by an ordered-subsets expectation maximization algorithm (2 iterations, 10 subsets). Images were obtained after injection of 430-604 MBq of [^99mTc]CXCR4-Tc-14 at 5 min to 21 h p.i.
The specific and effective doses in selected organs were analyzed. For calculation of the doses, voxels of interest were defined around areas with increased uptake in full-body images. Time-activity curves for the respective organs were automatically determined and the residence time of the tracer calculated using the specific calibration of the SPECT camera and a standard activity value. The residence time was used as the input data for the Olinda/EXM software. The output of this calculation was referred to the dosimetry guideline of the International Commission on Radiological Protection.

[7] = patient, multiple myeloma, 604 MBq

T1 sequence (P61073 whole entry): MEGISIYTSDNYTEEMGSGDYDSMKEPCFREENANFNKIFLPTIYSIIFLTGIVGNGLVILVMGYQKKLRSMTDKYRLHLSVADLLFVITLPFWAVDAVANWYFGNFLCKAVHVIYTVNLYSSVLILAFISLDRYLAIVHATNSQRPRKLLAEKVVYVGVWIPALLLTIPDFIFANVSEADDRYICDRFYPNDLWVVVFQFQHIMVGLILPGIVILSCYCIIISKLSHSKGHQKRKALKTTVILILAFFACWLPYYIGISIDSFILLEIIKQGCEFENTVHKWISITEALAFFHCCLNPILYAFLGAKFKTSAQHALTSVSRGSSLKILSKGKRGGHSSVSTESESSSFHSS

## C[C@@H](NC(=O)[C@@H](CCCNC(=N)N)NC(=O)[C@@H](CN)NC(=O)[C@@H](CO)NC(=O)[C@@H](CO)NC(=O)[C@@H](CO)NC(=O)CS)C(=O)Nc1ccc(C(=O)NCCC[C@@H]2C(=O)N[C@@H](CCCNC(=N)N)C(=O)N[C@@H](Cc3ccc4ccccc4c3)C(=O)NCC(=O)N[C@H](Cc3ccc(O)cc3)C(=O)N2C)cc1 [Tc-CXCR4-6] (I: Mercaptoacetyl-[dS][dS][dS][dDap][dR][dA][4Abz] / II: cyclo([dY][dNMeOrn]R[2Nal]G); amide I:C-II:2)
[1]; 30 min
  Internalized in relation to 125I-Fc-131 [%]: 470 ± 17.4%
  Cell-bound [%]: 6.56 ± 0.31%
  Internalized [%]: 17.4 ± 0.40%
[1]; 90 min
  Internalization [% Fc-131]: 525 (90 min) % Fc-131
  Internalized in relation to 125I-Fc-131 [%]: 526 ± 29.0%
  Cell-bound [%]: 6.90 ± 0.29%
  Internalized [%]: 27.1 ± 0.50%
[2]
  logD7.4: −1.54 ± 0.02 (6)
CXCR4 [3]
  IC50: 3.67 ± 0.77 nM
CXCR4 [4]
  IC50: 4.97 ± 1.34 nM

## C[C@@H](NC(=O)[C@@H](CCCNC(=N)N)NC(=O)[C@@H](CN)NC(=O)c1ccc(NN)nc1)C(=O)Nc1ccc(C(=O)NCCC[C@@H]2C(=O)N[C@@H](CCCNC(=N)N)C(=O)N[C@@H](Cc3ccc4ccccc4c3)C(=O)NCC(=O)N[C@H](Cc3ccc(O)cc3)C(=O)N2C)cc1 [Tc-CXCR4-13] (cyclo([dY][dNMeOrn]([4Abz-dA-dR-dDap-HYNIC])R[2Nal]G))
[1]; 30 min
  Internalized in relation to 125I-Fc-131 [%]: 434 ± 18.8%
  Cell-bound [%]: 7.56 ± 0.38%
  Internalized [%]: 18.0 ± 0.27%
[1]; 90 min
  Internalization [% Fc-131]: 503 (90 min) % Fc-131
  Internalized in relation to 125I-Fc-131 [%]: 503 ± 16.2%
  Cell-bound [%]: 7.65 ± 0.47%
  Internalized [%]: 25.5 ± 0.57%
[2]
  logD7.4: −2.74 ± 0.03 (5)
[5]; % iD/g Blood
  tissue uptake at 1 h: 1.56 %ID/g
[5]; % iD/g Bone
  tissue uptake at 1 h: 0.81 %ID/g
[5]; % iD/g Heart
  tissue uptake at 1 h: 0.78 %ID/g
[5]; % iD/g Intestine
  tissue uptake at 1 h: 0.57 %ID/g
[5]; % iD/g Kidney
  tissue uptake at 1 h: 29.5 %ID/g
[5]; % iD/g Liver
  tissue uptake at 1 h: 2.62 %ID/g
[5]; % iD/g Lung
  tissue uptake at 1 h: 1.94 %ID/g
[5]; % iD/g Muscle
  tissue uptake at 1 h: 1.52 %ID/g
[5]; % iD/g Pancreas
  tissue uptake at 1 h: 0.36 %ID/g
[5]; % iD/g Spleen
  tissue uptake at 1 h: 2.43 %ID/g
[5]; % iD/g Stomach
  tissue uptake at 1 h: 1.98 %ID/g
[5]; % iD/g Tumor
  tissue uptake at 1 h: 8.02 %ID/g
CXCR4 [3]
  IC50: 4.16 ± 1.5 nM

## C[C@@H](NC(=O)[C@@H](CCCNC(=N)N)NC(=O)[C@@H](CN)NC(=O)C(CNCCN)CNCCN)C(=O)Nc1ccc(C(=O)NCCC[C@@H]2C(=O)N[C@@H](CCCNC(=N)N)C(=O)N[C@@H](Cc3ccc4ccccc4c3)C(=O)NCC(=O)N[C@H](Cc3ccc(O)cc3)C(=O)N2C)cc1 [Tc-CXCR4-14] (cyclo([dY][dNMeOrn]([4Abz-dA-dR-dDap-X1])R[2Nal]G))
[1]; 10 min
  Internalized in relation to 125I-Fc-131 [%]: 486 ± 18.9%
  Cell-bound [%]: 0.67 ± 0.14%
  Internalized [%]: 17.9 ± 0.59%
[1]; 30 min
  Internalized in relation to 125I-Fc-131 [%]: 683 ± 51.3%
  Cell-bound [%]: 1.56 ± 0.41%
  Internalized [%]: 30.2 ± 0.74%
[1]; 60 min
  Internalized in relation to 125I-Fc-131 [%]: 742 ± 45.2%
  Cell-bound [%]: 0.91 ± 0.14%
  Internalized [%]: 36.4 ± 0.20%
[1]; 120 min
  Internalization [% Fc-131]: 666 (120 min) % Fc-131
  Internalized in relation to 125I-Fc-131 [%]: 694 ± 42.5%
  Cell-bound [%]: 1.11 ± 0.48%
  Internalized [%]: 37.9 ± 0.56%
[1]; time not given
  Internalization (in % of 125I-FC-131): 742%
[2]; listed as [^99mTc]CXCR4-Tc-14
  logD7.4: −1.75
[5]; Blood, 1 h p.i., Jurkat xenograft, CB-17 SCID female mice, read-out: % iD/g Blood
  tissue uptake at 1 h: 1.62 %ID/g
[5]; Bone, 1 h p.i., Jurkat xenograft, CB-17 SCID female mice, read-out: % iD/g Bone
  tissue uptake at 1 h: 1.31 %ID/g
[5]; Heart, 1 h p.i., Jurkat xenograft, CB-17 SCID female mice, read-out: % iD/g Heart
  tissue uptake at 1 h: 1.21 %ID/g
[5]; Intestine, 1 h p.i., Jurkat xenograft, CB-17 SCID female mice, read-out: % iD/g Intestine
  tissue uptake at 1 h: 0.92 %ID/g
[5]; Liver, 1 h p.i., Jurkat xenograft, CB-17 SCID female mice, read-out: % iD/g Liver
  tissue uptake at 1 h: 7.67 %ID/g
[5]; Lung, 1 h p.i., Jurkat xenograft, CB-17 SCID female mice, read-out: % iD/g Lung
  tissue uptake at 1 h: 3.99 %ID/g
[5]; Pancreas, 1 h p.i., Jurkat xenograft, CB-17 SCID female mice, read-out: % iD/g Pancreas
  tissue uptake at 1 h: 0.56 %ID/g
[5]; Stomach, 1 h p.i., Jurkat xenograft, CB-17 SCID female mice, read-out: % iD/g Stomach
  tissue uptake at 1 h: 1.97 %ID/g
[5]; Tumor, 1 h p.i., Jurkat xenograft, CB-17 SCID female mice, read-out: % iD/g Tumor
  tissue uptake at 1 h: 8.63 %ID/g
[6]; 604 MBq injected
  delivered whole-body dose: 3.8 mSv
[6]; patient, multiple myeloma
  whole-body effective dose: 6.3 μSv/MBq
[6]; [7]
  specific dose, kidneys: 10 μGy/MBq
  specific dose, liver: 14 μGy/MBq
  specific dose, osteogenic cells: 13 μGy/MBq
  specific dose, red bone marrow: 11 μGy/MBq
  specific dose, spleen: 47 μGy/MBq
CXCR4 [3]; read-out: invIC50, radiolabeled compound displaced by Fc-131, Jurkat cells
  IC50: 10.2 nM
